Source: ChEMBL document CHEMBL1201861, “Genomics of Drug Sensitity in Cancer screening data, Wellcome Trust Sanger Institute”

How the values were obtained:
Test in all cases: cells
CTV-1 = type: functional, cell-based, Homo sapiens; conditions: Homo sapiens, CTV-1
Description: SANGER: Inhibition of human CTV-1 cell growth in a cell viability assay.

CW-2 = type: functional, cell-based, Homo sapiens; conditions: Homo sapiens, CW-2
Description: SANGER: Inhibition of human CW-2 cell growth in a cell viability assay.

D283 Med = type: functional, cell-based, Homo sapiens; conditions: Homo sapiens, D283 Med
Description: SANGER: Inhibition of human D-283MED cell growth in a cell viability assay.

DJM-1 = type: functional, cell-based, Homo sapiens; conditions: Homo sapiens, DJM-1
Description: SANGER: Inhibition of human DJM-1 cell growth in a cell viability assay.

EC-GI-10 = type: functional, cell-based, Homo sapiens; conditions: Homo sapiens, EC-GI-10
Description: SANGER: Inhibition of human EC-GI-10 cell growth in a cell viability assay.

ES4 = type: functional, cell-based, Homo sapiens; conditions: Homo sapiens, ES4
Description: SANGER: Inhibition of human ES4 cell growth in a cell viability assay.

EW-16 = type: functional, cell-based, Homo sapiens; conditions: Homo sapiens, EW-16
Description: SANGER: Inhibition of human EW-16 cell growth in a cell viability assay.

GCIY = type: functional, cell-based, Homo sapiens; conditions: Homo sapiens, GCIY
Description: SANGER: Inhibition of human GCIY cell growth in a cell viability assay.

GT3TKB = type: functional, cell-based, Homo sapiens; conditions: Homo sapiens, GT3TKB
Description: SANGER: Inhibition of human GT3TKB cell growth in a cell viability assay.

HCC1187 = type: functional, cell-based, Homo sapiens; conditions: Homo sapiens, HCC1187
Description: SANGER: Inhibition of human HCC1187 cell growth in a cell viability assay.

HEL = type: functional, cell-based, Homo sapiens; conditions: Homo sapiens, HEL
Description: SANGER: Inhibition of human HEL cell growth in a cell viability assay.

IA-LM = type: functional, cell-based, Homo sapiens; conditions: Homo sapiens, IA-LM
Description: SANGER: Inhibition of human IA-LM cell growth in a cell viability assay.

KARPAS-299 = type: functional, cell-based, Homo sapiens; conditions: Homo sapiens, KARPAS-299
Description: SANGER: Inhibition of human KARPAS-299 cell growth in a cell viability assay.

KS-1 = type: functional, cell-based, Homo sapiens; conditions: Homo sapiens, KS-1
Description: SANGER: Inhibition of human KS-1 cell growth in a cell viability assay.

LAN-6 = type: functional, cell-based, Homo sapiens; conditions: Homo sapiens, LAN-6
Description: SANGER: Inhibition of human LAN-6 cell growth in a cell viability assay.

LB2518-MEL = type: functional, cell-based, Homo sapiens; conditions: Homo sapiens, LB2518-MEL
Description: SANGER: Inhibition of human LB2518-MEL cell growth in a cell viability assay.

MHH-PREB-1 = type: functional, cell-based, Homo sapiens; conditions: Homo sapiens, MHH-PREB-1
Description: SANGER: Inhibition of human MHH-PREB-1 cell growth in a cell viability assay.

MN-60 = type: functional, cell-based, Homo sapiens; conditions: Homo sapiens, MN-60
Description: SANGER: Inhibition of human MN-60 cell growth in a cell viability assay.

MSTO-211H = type: functional, cell-based, Homo sapiens; conditions: Homo sapiens, MSTO-211H
Description: SANGER: Inhibition of human MSTO-211H cell growth in a cell viability assay.

NB13 = type: functional, cell-based, Homo sapiens; conditions: Homo sapiens, NB13
Description: SANGER: Inhibition of human NB13 cell growth in a cell viability assay.

NB5 = type: functional, cell-based, Homo sapiens; conditions: Homo sapiens, NB5
Description: SANGER: Inhibition of human NB5 cell growth in a cell viability assay.

NCI-H1155 = type: functional, cell-based, Homo sapiens; conditions: Homo sapiens, NCI-H1155
Description: SANGER: Inhibition of human NCI-H1155 cell growth in a cell viability assay.

NCI-H1304 = type: functional, cell-based, Homo sapiens; conditions: Homo sapiens, NCI-H1304
Description: SANGER: Inhibition of human NCI-H1304 cell growth in a cell viability assay.

NCI-H209 = type: functional, cell-based, Homo sapiens; conditions: Homo sapiens, NCI-H209
Description: SANGER: Inhibition of human NCI-H209 cell growth in a cell viability assay.

NCI-H2126 = type: functional, cell-based, Homo sapiens; conditions: Homo sapiens, NCI-H2126
Description: SANGER: Inhibition of human NCI-H2126 cell growth in a cell viability assay.

NCI-H69 = type: functional, cell-based, Homo sapiens; conditions: Homo sapiens, NCI-H69
Description: SANGER: Inhibition of human NCI-H69 cell growth in a cell viability assay.

SNU1 = type: functional, cell-based, Homo sapiens; conditions: Homo sapiens, SNU1
Description: SANGER: Inhibition of human NCI-SNU-1 cell growth in a cell viability assay.

SNU-5 = type: functional, cell-based, Homo sapiens; conditions: Homo sapiens, SNU-5
Description: SANGER: Inhibition of human NCI-SNU-5 cell growth in a cell viability assay.

NH-12 = type: functional, cell-based, Homo sapiens; conditions: Homo sapiens, NH-12
Description: SANGER: Inhibition of human NH-12 cell growth in a cell viability assay.

P30-OHK = type: functional, cell-based, Homo sapiens; conditions: Homo sapiens, P30-OHK
Description: SANGER: Inhibition of human P30-OHK cell growth in a cell viability assay.

PSN1 = type: functional, cell-based, Homo sapiens; conditions: Homo sapiens, PSN1
Description: SANGER: Inhibition of human PSN1 cell growth in a cell viability assay.

Ramos-2G6-4C10 = type: functional, cell-based, Homo sapiens; conditions: Homo sapiens, Ramos-2G6-4C10
Description: SANGER: Inhibition of human Ramos-2G6-4C10 cell growth in a cell viability assay.

SBC-1 = type: functional, cell-based, Homo sapiens; conditions: Homo sapiens, SBC-1
Description: SANGER: Inhibition of human SBC-1 cell growth in a cell viability assay.

SCC-15 = type: functional, cell-based, Homo sapiens; conditions: Homo sapiens, SCC-15
Description: SANGER: Inhibition of human SCC-15 cell growth in a cell viability assay.

SK-N-FI = type: functional, cell-based, Homo sapiens; conditions: Homo sapiens, SK-N-FI
Description: SANGER: Inhibition of human SK-N-FI cell growth in a cell viability assay.

SK-NEP-1 = type: functional, cell-based, Homo sapiens; conditions: Homo sapiens, SK-NEP-1
Description: SANGER: Inhibition of human SK-NEP-1 cell growth in a cell viability assay.

SNU-C2B = type: functional, cell-based, Homo sapiens; conditions: Homo sapiens, SNU-C2B
Description: SANGER: Inhibition of human SNU-C2B cell growth in a cell viability assay.

SW684 = type: functional, cell-based, Homo sapiens; conditions: Homo sapiens, SW684
Description: SANGER: Inhibition of human SW684 cell growth in a cell viability assay.

SW 954 = type: functional, cell-based, Homo sapiens; conditions: Homo sapiens, SW 954
Description: SANGER: Inhibition of human SW954 cell growth in a cell viability assay.

SW982 = type: functional, cell-based, Homo sapiens; conditions: Homo sapiens, SW982
Description: SANGER: Inhibition of human SW982 cell growth in a cell viability assay.

697 = type: functional, cell-based, Homo sapiens; conditions: Homo sapiens
Description: SANGER: Inhibition of human 697 cell growth in a cell viability assay.

A253 cell line = type: functional, cell-based, Homo sapiens; conditions: Homo sapiens, A253
Description: SANGER: Inhibition of human A253 cell growth in a cell viability assay.

AM-38 = type: functional, cell-based, Homo sapiens; conditions: Homo sapiens, AM-38
Description: SANGER: Inhibition of human AM-38 cell growth in a cell viability assay.

ATN-1 = type: functional, cell-based, Homo sapiens; conditions: Homo sapiens, ATN-1
Description: SANGER: Inhibition of human ATN-1 cell growth in a cell viability assay.

BT-474 = type: functional, cell-based, Homo sapiens; conditions: Homo sapiens, BT-474
Description: SANGER: Inhibition of human BT-474 cell growth in a cell viability assay.

TE-8 = type: functional, cell-based, Homo sapiens; conditions: Homo sapiens, TE-8
Description: SANGER: Inhibition of human TE-8 cell growth in a cell viability assay.

TE-9 = type: functional, cell-based, Homo sapiens; conditions: Homo sapiens, TE-9
Description: SANGER: Inhibition of human TE-9 cell growth in a cell viability assay.

U-87 MG = type: functional, cell-based, Homo sapiens, U-87MG ATCC; conditions: Homo sapiens, U-87 MG
Description: SANGER: Inhibition of human U-87-MG cell growth in a cell viability assay.

COLO-684 = type: functional, cell-based, Homo sapiens; conditions: Homo sapiens, COLO-684
Description: SANGER: Inhibition of human COLO-684 cell growth in a cell viability assay.

## CCC/C=C/C=C/C(=O)O[C@H]1/C(=C/C(=O)OC)C[C@H]2C[C@H]([C@@H](C)O)OC(=O)C[C@H](O)C[C@@H]3C[C@H](OC(C)=O)C(C)(C)[C@](O)(C[C@@H]4C/C(=C/C(=O)OC)C[C@H](/C=C/C(C)(C)[C@]1(O)O2)O4)O3 [BRYOSTATIN 1]
CTV-1
  IC50: > 0.008 µM
CW-2
  IC50: > 0.008 µM
D283 Med
  IC50: > 0.008 µM
DJM-1
  IC50: > 0.008 µM
EC-GI-10
  IC50: > 0.008 µM
ES4
  IC50: > 0.008 µM
EW-16
  IC50: > 0.008 µM
GCIY
  IC50: > 0.008 µM
GT3TKB
  IC50: > 0.008 µM
HCC1187
  IC50: > 0.008 µM
HEL
  IC50: > 0.008 µM
IA-LM
  IC50: > 0.008 µM
KARPAS-299
  IC50: > 0.008 µM
KS-1
  IC50: > 0.008 µM
LAN-6
  IC50: > 0.008 µM
LB2518-MEL
  IC50: > 0.008 µM
MHH-PREB-1
  IC50: > 0.008 µM
MN-60
  IC50: > 0.008 µM
MSTO-211H
  IC50: > 0.008 µM
NB13
  IC50: > 0.008 µM
NB5
  IC50: > 0.008 µM
NCI-H1155
  IC50: > 0.008 µM
NCI-H1304
  IC50: > 0.008 µM
NCI-H209
  IC50: > 0.008 µM
NCI-H2126
  IC50: > 0.008 µM
NCI-H69
  IC50: > 0.008 µM
SNU1
  IC50: > 0.008 µM
SNU-5
  IC50: > 0.008 µM
NH-12
  IC50: > 0.008 µM
P30-OHK
  IC50: > 0.008 µM
PSN1
  IC50: > 0.008 µM
Ramos-2G6-4C10
  IC50: > 0.008 µM
SBC-1
  IC50: > 0.008 µM
SCC-15
  IC50: > 0.008 µM
SK-N-FI
  IC50: > 0.008 µM
SK-NEP-1
  IC50: > 0.008 µM
SNU-C2B
  IC50: > 0.008 µM
SW684
  IC50: > 0.008 µM
SW 954
  IC50: > 0.008 µM
SW982
  IC50: > 0.008 µM
697
  IC50: > 0.008 µM
A253 cell line
  IC50: > 0.008 µM
AM-38
  IC50: > 0.008 µM
ATN-1
  IC50: > 0.008 µM
BT-474
  IC50: > 0.008 µM
TE-8
  IC50: > 0.008 µM
TE-9
  IC50: > 0.008 µM
U-87 MG
  IC50: > 0.008 µM
COLO-684
  IC50: > 0.008 µM

## C=C(c1ccc(C(=O)O)cc1)c1cc2c(cc1C)C(C)(C)CCC2(C)C [BEXAROTENE]
CTV-1
  IC50: > 8 µM
CW-2
  IC50: > 8 µM
D283 Med
  IC50: > 8 µM
DJM-1
  IC50: > 8 µM
EC-GI-10
  IC50: > 8 µM
ES4
  IC50: 3.77 µM
EW-16
  IC50: > 8 µM
GCIY
  IC50: > 8 µM
GT3TKB
  IC50: > 8 µM
HCC1187
  IC50: > 8 µM
HEL
  IC50: > 8 µM
IA-LM
  IC50: 7.36 µM
KARPAS-299
  IC50: > 8 µM
KS-1
  IC50: > 8 µM
LAN-6
  IC50: > 8 µM
LB2518-MEL
  IC50: > 8 µM
MHH-PREB-1
  IC50: > 8 µM
MN-60
  IC50: > 8 µM
MSTO-211H
  IC50: > 8 µM
NB13
  IC50: > 8 µM
NB5
  IC50: > 8 µM
NCI-H1155
  IC50: > 8 µM
NCI-H1304
  IC50: > 8 µM
NCI-H209
  IC50: > 8 µM
NCI-H2126
  IC50: > 8 µM
NCI-H69
  IC50: > 8 µM
SNU1
  IC50: > 8 µM
SNU-5
  IC50: > 8 µM
NH-12
  IC50: > 8 µM
P30-OHK
  IC50: > 8 µM
PSN1
  IC50: 4 µM
Ramos-2G6-4C10
  IC50: > 8 µM
SBC-1
  IC50: > 8 µM
SCC-15
  IC50: > 8 µM
SK-N-FI
  IC50: > 8 µM
SK-NEP-1
  IC50: > 8 µM
SNU-C2B
  IC50: > 8 µM
SW684
  IC50: > 8 µM
SW 954
  IC50: > 8 µM
SW982
  IC50: > 8 µM
697
  IC50: > 8 µM
A253 cell line
  IC50: > 8 µM
AM-38
  IC50: > 8 µM
ATN-1
  IC50: 3.34 µM
BT-474
  IC50: > 8 µM
TE-8
  IC50: > 8 µM
TE-9
  IC50: > 8 µM
U-87 MG
  IC50: > 8 µM
COLO-684
  IC50: > 8 µM

## N[C@@H](CSC(c1ccccc1)(c1ccccc1)c1ccccc1)C(=O)O [S-TRITYL-L-CYSTEINE]
CTV-1
  IC50: 0.788 µM
CW-2
  IC50: > 5.12 µM
D283 Med
  IC50: > 5.12 µM
DJM-1
  IC50: > 5.12 µM
EC-GI-10
  IC50: > 5.12 µM
ES4
  IC50: > 5.12 µM
EW-16
  IC50: 1.62 µM
GCIY
  IC50: 1.82 µM
GT3TKB
  IC50: 0.285 µM
HCC1187
  IC50: > 5.12 µM
HEL
  IC50: 2.75 µM
IA-LM
  IC50: 1.39 µM
KARPAS-299
  IC50: 4.18 µM
KS-1
  IC50: 0.842 µM
LAN-6
  IC50: 3.69 µM
LB2518-MEL
  IC50: 3.71 µM
MHH-PREB-1
  IC50: > 5.12 µM
MN-60
  IC50: > 5.12 µM
MSTO-211H
  IC50: > 5.12 µM
NB13
  IC50: 1.99 µM
NB5
  IC50: > 5.12 µM
NCI-H1155
  IC50: 3.8 µM
NCI-H1304
  IC50: > 5.12 µM
NCI-H209
  IC50: 4.75 µM
NCI-H2126
  IC50: 2.11 µM
NCI-H69
  IC50: 3.19 µM
SNU1
  IC50: > 5.12 µM
SNU-5
  IC50: > 5.12 µM
NH-12
  IC50: > 5.12 µM
P30-OHK
  IC50: > 5.12 µM
PSN1
  IC50: 1.49 µM
Ramos-2G6-4C10
  IC50: 1.55 µM
SBC-1
  IC50: > 5.12 µM
SCC-15
  IC50: > 5.12 µM
SK-N-FI
  IC50: 3.16 µM
SK-NEP-1
  IC50: 1.86 µM
SNU-C2B
  IC50: 1.28 µM
SW684
  IC50: > 5.12 µM
SW 954
  IC50: 1.88 µM
SW982
  IC50: 1.07 µM
697
  IC50: 0.328 µM
A253 cell line
  IC50: 3.71 µM
AM-38
  IC50: > 5.12 µM
ATN-1
  IC50: 0.859 µM
BT-474
  IC50: > 5.12 µM
TE-8
  IC50: 0.722 µM
TE-9
  IC50: 0.915 µM
U-87 MG
  IC50: > 5.12 µM
COLO-684
  IC50: 2.08 µM
